Laboratory results published in patent US10689340B2, “Substituted indoline derivatives as dengue viral replication inhibitors” (priority 2016, dated 2020).

How the values were obtained:
[1] = system: DENV-2 16681 strain; assay: DENV-2 antiviral assay (eGFP fluorescence); assay type: cell-based, Dengue virus; settings: DENV-2 16681 eGFP, Vero cells, MOI 0.5, 3 days
Procedure: The antiviral activity of all the compounds of the invention was tested against the DENV-2 16681 strain which was labeled with enhanced green fluorescent protein (eGPF). The culture medium consists of minimal essential medium supplemented with 2% of heat-inactivated fetal calf serum, 0.04% gentamycin (50 mg/mL) and 2 mM of L-glutamine. Vero cells, obtained from ECACC, were suspended in culture medium and 25 μL was added to 384-well plates (2500 cells/well), which already contain the antiviral compounds. Typically, these plates contain a 5-fold serial dilution of 9 dilution steps of the test compound at 200 times the final concentration in 100% DMSO (200 nL). […] Finally, each plate contains wells which are assigned as virus controls (containing cells and virus in the absence of compound), cell controls (containing cells in the absence of virus and compound) and medium controls (containing medium in the absence of cells, virus and compounds). To the wells assigned as medium control, 25 μL of culture medium was added instead of Vero cells. Once the cells were added to the plates, the plates were incubated for 30 minutes at room temperature to allow the cells to distribute evenly within the wells. Next, the plates were incubated in a fully humidified incubator (37° C., 5% CO2) until the next day. Then, DENV-2 strain 16681, labeled with eGFP, was added at a multiplicity of infection (MOI) of 0.5. Therefore, 15 μL of virus suspension was added to all the wells containing test compound and to the wells assigned as virus control. In parallel, 15 μL of culture medium was added to the medium and cell controls. Next, the plates were incubated for 3 days in a fully humidified incubator (37° C., 5% CO2). At the day of the read out, the eGFP fluorescence was measured using an automated fluorescence microscope at 488 nm (blue laser). Using an in-house LIMS system, inhibition dose response curves for each compound were calculated and the half maximal effective concentration (EC50) was determined. Therefore, the percent inhibition (I) for every test concentration is calculated using the following formula: I=100*(ST-SCC)/(SVC-SCC); ST, SCC and SVC are the amount of eGFP signal in the test compound, cell control and virus control wells, respectively. The EC50, represents the concentration of a compound at which the virus replication is inhibited with 50%, as measured by a 50% reduction of the eGFP fluorescent intensity compared to the virus control. The EC50 is calculated using linear interpolation (Table 1).

[2] = in vitro; settings: African green monkey
[3] = system: Vero cells; settings: African green monkey
[4] = Dengue virus, DENV2, Vero, 72 h

COc1cc(NC(C(=O)N2CCc3cc(OC)c(C(F)(F)F)cc32)c2ccc(Cl)cc2)cc(OCCCC(=O)O)c1 (single isomer, unassigned) [Compound 5A]
EC50 [1]: 19 nM
CC50 [2]: 12000 nM

COc1cc(NC(C(=O)N2CCc3ccc(OC(F)(F)F)cc32)c2ccc(Cl)cc2OC)cc(OCCCC(=O)O)c1 (racemic) [Compound 8, 4-(3-((1-(4-chloro-2-methoxyphenyl)-2-oxo-2-(6-(trifluoro-methoxy)indolin-1-yl)ethyl)amino)-5-methoxyphenoxy)butanoic acid]
EC50 [1, 4]: 0.13 nM
CC50 [2]: 12000 nM

COc1cc(NC(C(=O)N2CCc3ccc(C(F)(F)F)cc32)c2ccc(Cl)cc2F)cc(OCCCC(=O)O)c1 (racemic) [Compound 9, 4-(3-((1-(4-chloro-2-fluorophenyl)-2-oxo-2-(6-(trifluoromethyl)indolin-1-yl)ethyl)amino)-5-methoxy-phenoxy)butanoic acid]
EC50 [1, 4]: 0.96 nM
CC50 [2]: 11000 nM

COc1cc(NC(C(=O)N2CCc3ccc(C(F)(F)F)cc32)c2ccc(Cl)cc2)cc(OCCCC(=O)O)c1 (single isomer, unassigned) [Compound 3A]
EC50 [1]: 3.9 nM
CC50 [2]: 11000 nM

COc1cc(NC(C(=O)N2CCc3ccc(OC(F)(F)F)cc32)c2ccc(Cl)cc2F)cc(OCCCC(=O)O)c1 (single isomer, unassigned) [Compound 10B]
EC50 [1]: 5.5 nM
CC50 [3]: 8800 nM

COc1cc(NC(C(=O)N2CCc3ccc(C(F)(F)F)cc32)c2ccc(Cl)cc2OC)cc(OCCCC(=O)O)c1 (single isomer, unassigned) [Compound 6A]
EC50 [1]: 23 nM
CC50 [2]: 12000 nM

COc1cc(NC(C(=O)N2CCc3ccc(OC(F)(F)F)cc32)c2ccc(F)cc2)cc(OCCCC(=O)O)c1 (racemic) [Compound 2, 4-(3-((1-(4-fluorophenyl)-2-oxo-2-(6-(trifluoromethoxy)indolin-1-yl)ethyl)amino)-5-methoxyphenoxy)butanoic acid]
EC50 [1, 4]: 0.55 nM
CC50 [2]: 12000 nM

COc1cc(NC(C(=O)N2CCc3cc(OC)c(C(F)(F)F)cc32)c2ccc(Cl)cc2OC)cc(OCCCC(=O)O)c1 (single isomer, unassigned) [Compound 7A]
EC50 [1]: 24 nM
CC50 [2]: 12000 nM

COc1cc(NC(C(=O)N2CCc3cc(OC)c(C(F)(F)F)cc32)c2ccc(Cl)cc2)cc(OCCCC(=O)O)c1 (racemic) [Compound 5, 4-(3-((1-(4-chlorophenyl)-2-(5-methoxy-6-(trifluoromethyl)indolin-1-yl)-2-oxoethyl)amino)-5-methoxyphenoxy)butanoic Acid]
EC50 [1, 4]: 0.62 nM
CC50 [2]: 13000 nM

COc1cc(NC(C(=O)N2CCc3cc(OC)c(OC(F)(F)F)cc32)c2ccc(Cl)cc2)cc(OCCCC(=O)O)c1 (racemic) [Compound 12, 4-(3-((1-(4-chlorophenyl)-2-(5-methoxy-6-(trifluoro-methoxy)indolin-1-yl)-2-oxoethyl)amino)-5-methoxyphenoxy)butanoic acid]
EC50 [1, 4]: 0.73 nM
CC50 [2]: 12000 nM

COc1cc(NC(C(=O)N2CCc3cc(OC)c(C(F)(F)F)cc32)c2ccc(Cl)cc2F)cc(OCCCC(=O)O)c1 (single isomer, unassigned) [Compound 11A]
EC50 [1]: 15 nM
CC50 [2]: 12000 nM

COc1cc(NC(C(=O)N2CCc3ccc(C(F)(F)F)cc32)c2ccc(F)cc2)cc(OCCCC(=O)O)c1 (single isomer, unassigned) [Compound 1A]
EC50 [1]: 180 nM
CC50 [2]: > 25000 nM

COc1cc(NC(C(=O)N2CCc3ccc(OC(F)(F)F)cc32)c2ccc(Cl)cc2)cc(OCCCC(=O)O)c1 (single isomer, unassigned) [Compound 4A]
EC50 [1]: 31 nM
CC50 [2]: 10000 nM

COc1cc(NC(C(=O)N2CCc3ccc(OC(F)(F)F)cc32)c2ccc(Cl)cc2OC)cc(OCCCC(=O)O)c1 (single isomer, unassigned) [Compound 8A]
EC50 [1]: 280 nM
CC50 [2]: 12000 nM

COc1cc(NC(C(=O)N2CCc3cc(OC)c(C(F)(F)F)cc32)c2ccc(Cl)cc2F)cc(OCCCC(=O)O)c1 (racemic) [Compound 11, 4-(3-((1-(4-chloro-2-fluorophenyl)-2-(5-methoxy-6-(trifluoromethyl)indolin-1-yl)-2-oxoethyl)amino)-5-methoxyphenoxy)butanoic acid]
EC50 [1, 4]: 0.66 nM
CC50 [2]: 11000 nM

COc1cc(NC(C(=O)N2CCc3ccc(OC(F)(F)F)cc32)c2ccc(Cl)cc2)cc(OCCCC(=O)O)c1 (racemic) [Compound 4, 4-(3-((1-(4-chlorophenyl)-2-oxo-2-(6-(trifluoromethoxy)indolin-1-yl)ethyl)amino)-5-methoxyphenoxy)butanoic acid]
EC50 [1, 4]: 0.15 nM
CC50 [2]: 10000 nM

COc1cc(NC(C(=O)N2CCc3cc(OC)c(OC(F)(F)F)cc32)c2ccc(Cl)cc2)cc(OCCCC(=O)O)c1 (single isomer, unassigned) [Compound 12A]
EC50 [1]: 380 nM
CC50 [2]: 12000 nM

COc1cc(NC(C(=O)N2CCc3ccc(C(F)(F)F)cc32)c2ccc(F)cc2)cc(OCCCC(=O)O)c1 (racemic) [Compound 1, 4-(3-((1-(4-fluorophenyl)-2-oxo-2-(6-(trifluoromethyl)-indolin-1-yl)ethyl)amino)-5-methoxyphenoxy)butanoic acid]
EC50 [1, 4]: 2.1 nM
CC50 [2]: > 25000 nM

COc1cc(NC(C(=O)N2CCc3ccc(OC(F)(F)F)cc32)c2ccc(Cl)cc2F)cc(OCCCC(=O)O)c1 (racemic) [Compound 10, 4-(3-((1-(4-chloro-2-fluorophenyl)-2-oxo-2-(6-(trifluoromethoxy)indolin-1-yl)ethyl)amino)-5-methoxy-phenoxy)butanoic acid]
EC50 [1, 4]: 0.24 nM
CC50 [2]: 10000 nM

COc1cc(NC(C(=O)N2CCc3ccc(OC(F)(F)F)cc32)c2ccc(F)cc2)cc(OCCCC(=O)O)c1 (single isomer, unassigned) [Compound 2A]
EC50 [1]: 56 nM
CC50 [2]: 14000 nM

COc1cc(NC(C(=O)N2CCc3ccc(C(F)(F)F)cc32)c2ccc(Cl)cc2F)cc(OCCCC(=O)O)c1 (single isomer, unassigned) [Compound 9A]
EC50 [1]: 31 nM
CC50 [2]: 12000 nM

COc1cc(NC(C(=O)N2CCc3ccc(C(F)(F)F)cc32)c2ccc(Cl)cc2OC)cc(OCCCC(=O)O)c1 (racemic) [Compound 6, 4-(3-((1-(4-chloro-2-methoxyphenyl)-2-oxo-2-(6-(trifluoro-methyl)indolin-1-yl)ethyl)amino)-5-methoxyphenoxy)butanoic acid]
EC50 [1, 4]: 0.31 nM
CC50 [2]: 12000 nM

COc1cc(NC(C(=O)N2CCc3cc(OC)c(C(F)(F)F)cc32)c2ccc(Cl)cc2OC)cc(OCCCC(=O)O)c1 (racemic) [Compound 7, 4-(3-((1-(4-chloro-2-methoxyphenyl)-2-(5-methoxy-6-(trifluoromethyl)indolin-1-yl)-2-oxoethyl)amino)-5-methoxyphenoxy)butanoic acid]
EC50 [1, 4]: 0.47 nM
CC50 [2]: 12000 nM
